Results as given in patent US20190137482A1, “HIGH THROUGHPUT SCREENING OF AGENTS ON DOPAMINERGIC NEURONS” (Cell Cure Neurosciences Ltd., priority 2013, published 2019).

Experiments:
[1] = system: hESC-derived dopaminergic neurons; assay: DansylD1 labeling and uptake in hESC-derived dopaminergic neurons; format: cell-based, human; details: for DansylD1 fluorescence level: hESC-derived dopaminergic neurons after 26 days of differentiation, agent present in the medium, FIGS. 6A-6D
Source text: In order to direct the differentiation of hESCs into DA neurons, the cells were first directed to become neural progenitors within free-floating spheres (2 weeks) in the presence of the dual SMAD inhibitors (LDN193189+SB431542), FGF8, Purmorphamine and CHIR. They were further directed to differentiate into DA progenitors (7 days) as adherent cultures on laminin/fibronectin in the presence of FGF8, Purmorphamine and CHIR. Finally, they were differentiated into mature DA neurons (7 days) in the presence of the following factors (BDNF, NT4, AA, db-cAMP, TGFbeta3, GDNF and DAPT). The relevant factors/mitogens were replaced every 2-3 days.
(§3) For Binding and uptake of the fluorescent ligand, 500-1000 nM of DansylD1™ (Five Photon Biochemicals™, Lot#81672) was administrated to the seeded cells after 2 weeks of differentiation on the coverslips or on 12/24 wells plastic plates for 10-15 minutes in 37° C. […] Uptake levels of the dansylD1 fluorescent ligand molecule were detected and analyzed by fluorescence microscope and a fluorescence micro-plate reader (Bioteck, 333/515 nm). Acquisition and analysis was performed using Magelan software and Microsoft Excel.
The neuronal culture was incubated in the presence of the D2 antagonist Sulpiride.

PC12 cells = assay: DansylD1 uptake calibration in PC-12 cells (fluorescence microscope); format: cell-based; details: 500 nM DansylD1, dopamine as competitive inhibitor, GBR as dopamine transporter blocker, FIGS. 3A-3D
Procedure: as §3

dopaminergic neurons = assay: DansylD1 fluorescence in dopaminergic neurons after toxin exposure; format: cell-based, human; details: for DansylD1 fluorescence levels by micro-plate reader: 2 week differentiated live mature DA neurons, different toxin concentrations, 1 day, DansylD1 added again, FIG. 11
Procedure: For Binding and uptake of the fluorescent ligand, 500-1000 nM of DansylD1™ (Five Photon Biochemicals™, Lot#81672) was administrated to the seeded cells after 2 weeks of differentiation on the coverslips or on 12/24 wells plastic plates for 10-15 minutes in 37° C. DansylD1 functions as the dopamine neurotransmitter in binding to the D2 dopamine receptor on Dopaminergic and GABAergic neurons and uptake through the dopamine transporter (DAT) by dopaminergic neurons. 50 nM of the D2 dopamine receptor antagonist—Sulpiride (sigma S112, Lot#108H4745) or 5 nM of the dopamine transporter (DAT) blocker—GBR (Sigma G9659, Lot#086K4104), were added for 10 minutes to the seeded cells in order to reduce the binding to non-dopaminergic neurons or to block the specific DansylD1 uptake respectively. Uptake levels of the dansylD1 fluorescent ligand molecule were detected and analyzed by fluorescence microscope and a fluorescence micro-plate reader (Bioteck, 333/515 nm). Acquisition and analysis was performed using Magelan software and Microsoft Excel.
Dopaminergic neurons were fluorescently labeled with Dansyl D1. Increasing levels of 6-OH dopamine (50 nM and 100 nM) were added to the dopaminergic neurons and following 1 day of culture, the neurons were contacted again with Dansyl D1. The cells were rinsed and then the amount of fluorescence was analyzed.
(§1) An additional experiment compared the effect of 100 nM 6-OH dopamine with 200 nM 6-OH dopamine. As illustrated in FIGS. 10A-10B, after addition of 200 nM 6-OH-dopamine to mature DA neurons the fluorescence levels of dansylD1 was decreased (green) and also the percentage of cells expressing TH (DA neuron marker) declined to 1-2% (FIGS. 10C and D).
(§2) Dansyl D1 was added to 2 week differentiated live mature DA neurons and the fluorescence levels quantified by fluorescence micro-plate reader. Later the cells were washed and different 6-OH-dopamine concentrations were added. After a day, dansylD1 was added again and the fluorescent levels measured once again.

mature DA neurons = assay: TH expression in mature DA neurons after toxin exposure; format: cell-based, human
Procedure: For staining, cells on the coverslips were blocked in 5% normal goat/donkey serum (NGS) for 1 hour at room temperature. The anti TH antibody was diluted 1:100 or 1:1000 in 1% normal donkey/goat serum (NGS) and applied for 1 hour at room temperature. The antibodies that was employed were rabbit anti-human TH polyclonal antibody or mouse anti-human TH monoclonal antibody, Cat No. p40101, purchased from Pel-freez, or Cat No. T1299 purchased from Sigma and rabbit anti hu Nurr1 ab AB5778 (Millipore 10 ug/ml) or mouse igG anti NurrI (millipore, 1:200 or 1:1000), Rabbit Anti DAT AB5802 (Millipore, 1:500-1:1000). Following three washes in PBS, swine-anti rabbit FITC or goat anti mouse Cy-3-antibody diluted 1:50 or 1:500 in 1% normal goat serum (NGS) was applied for 1 hour at room temperature. Cells were washed in PBS, fixed with 4% PFA and mounted in the presence of the nuclear counterstain DAPI for immunofluoresecent microscopic examination.
as §1

DA neurons = assay: Protection of DA neurons from the toxin 6-OH dopamine; format: cell-based, human; details: cells over-expressing GDNF; FIG. 12
Procedure: as §2

[2] = 200 nM toxin, mature DA neurons

## CCN1CCCC1CNC(=O)c1cc(S(N)(=O)=O)ccc1OC (stereo not shown) [sulpiride]
[1]; neuronal culture incubated with the D2 antagonist, fluorescent vesicles appear, FIGS. 8A-8B
  DansylD1 signal from the cells surface: less signal from the cells surface

## NCCc1ccc(O)c(O)c1 [dopamine]
PC12 cells
  amount of DansylD1 fluorescence in the cells: decreased the amount of fluorescence
[1]
  DansylD1 fluorescence level: caused the fluorescence level to decline

## NCCc1cc(O)c(O)cc1O [6-OH-dopamine]
Dopaminergic neurons; 50 nM and 100 nM toxin, 1 day of culture, relabeled with Dansyl D1, FIGS. 10A-10C
  amount of Dansyl D1 fluorescence in dopaminergic cells: reduced
Dopaminergic neurons; 100 nM toxin
  Dansyl-D1 uptake: significant decrease
Dopaminergic neurons; [2]
  fluorescence levels of dansylD1: decreased
Dopaminergic neurons
  DansylD1 fluorescence levels by micro-plate reader: decreased by half
Dopaminergic neurons; listed as 6-OH dopamine
  DansylD1 fluorescence levels by micro-plate reader: reduced in correlation with the amount of toxin
Mature DA neurons; 100 nM toxin
  TH positive cells: only minor reduction
Mature DA neurons; [2]
  percentage of cells expressing TH: 1-2%

## Cl.Cl.Fc1ccc(C(OCCN2CCN(CCCc3ccccc3)CC2)c2ccc(F)cc2)cc1 [GBR]
PC12 cells
  amount of DansylD1 fluorescence in the cells: decreased the amount of fluorescence
[1]
  DansylD1 fluorescence level: caused the fluorescence level to decline

B1: GDNF: neurotrophic factor over-expressed by cells that protected DA neurons from the toxin (protein, UniProt P39905 78-211, looked up)
Glial cell line-derived …: SPDKQMAVLPRRERNRQAAAANPENSRGKGRRGQRGKNRGCVLTAIHLNVTDLGLGYETKEELIFRYCSGSCDAAETTYDKILKNLSRNRRLVSDKVGQACCRPIAFDDDLSFLDDNLVYHILRKHSAKRCGCI
DA neurons
  protection of neurons from the toxin 6-OH dopamine: protected
